Assay results published in patent US7148193B2, “Compounds that bind to growth hormone receptor” (Antyra, Inc., priority 1997, dated 2006).
Where a SMILES comes first, the peptide text is derived from it. Bridges are numbered along the chain shown (N, C = ends).

Tests used:
[1] = target: T1, rGHBP (Rattus norvegicus, UniProt P16310); experiment: BIAcore affinity measurements of bPeptide binding to rGHBP; conditions: BIAcore appKD and phage competition
T1 construct: 1–48 of GHBP; The 3′ oligo used for this reaction encoded the mutation L43R (CTG→AGA); The second PCR reaction amplified the DNA encoding amino acids 38–260; 6xHis; made in house
T1 sequence (P16310 19-278 isoform P16310-2): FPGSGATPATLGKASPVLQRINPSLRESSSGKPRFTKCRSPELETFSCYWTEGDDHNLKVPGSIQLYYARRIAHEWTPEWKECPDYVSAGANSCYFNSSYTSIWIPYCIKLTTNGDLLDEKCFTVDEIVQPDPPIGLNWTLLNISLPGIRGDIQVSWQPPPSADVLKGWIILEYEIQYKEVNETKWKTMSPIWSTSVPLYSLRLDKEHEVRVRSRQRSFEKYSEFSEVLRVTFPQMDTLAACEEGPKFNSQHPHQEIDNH
Description: GHBP was immobilized onto one flow-cell of a CM-5 sensor chip (Biosensor) using amine coupling chemistry and the manufacturer's recommended protocol. An unrelated IgG was immobilized in the same manner to another flow cell of the same chip as a control surface. Increasing concentrations of synthetic peptide were injected over both surfaces, and the binding responses were allowed to come to equilibrium. After subtraction of background binding from the control surface, the results were used to derive an equilibrium dissociation constant using Scatchard analysis.
The rat GHBP (100 μg/ml) was immobilized onto a CM-5 sensor chip using amino coupling chemistry and the manufacturer's recommended protocol. The final surface density was 4000 RU. A monoclonal antibody was immobilized onto another flow cell as a control surface. Peptides (50 μg/ml) were injected at a flow rate of 5 μl/min. Background binding to the control surface was subtracted prior to further analysis.

[2] = target: T1, rGHBP; experiment: Time-resolved fluorometric detection (TRFD) of specific bLigand binding to rGHBP and its competition; conditions: TRFD
Description: For this invention, saEu forms a ternary complex with bP and rGHBP (i.e., the rGHBP:bP:saEu complex). As described herein, the TRFD assay is performed using biotinylated GH (bGH) as bLigand. Biotinylated H5-mutant peptides bP#447 (SEQ ID NO:11) and bP#418 (SEQ ID NO:12) are also used as bLigand (see below). The TRFD assay described herein faithfully reports the competition of ligand binding to the active site of rGHR. To perform the TRFD assays, soluble rGHBP is attached to the surface of microtiter wells, then incubated with bP. Unbound bP is than washed away and (sa)Eu is added to complex with receptor bound bP. The rGHBP:bP bound (sa)Eu is then converted into its highly fluorescent state and detected by TRFD.
Wells were coated with rGHBP(100 ng/well) overnight as described. ED50 and IC50 were calculated from analysis of specific bLigand binding to rGHBP. Competitors were added 1 hr prior to addition of bLigand as described.
rGHBP (50–200 μg/ml in 50 mM NaHCO3) was coated onto low-fluorescence MaxiSorp (Nunc) plates (100 μl/well) overnight at 4° C. The plates were blocked with PBS containing 2% non-fat milk and 0.05% BSA for 2 hr at room temperature, followed by three PBS washes. For competitions, serial dilutions of unlabelled growth hormone (0.1 nM-100 nM) or MAb 2C3 (0.67–67 nM) were added to the plates (100 μl/well) and incubated at room temperature for 1–2 hr. Biotinylated peptide or biotinylated GH (10× concentrations) were incubated in blocking buffer for 30 min to decrease non-specific binding. Ten microliters of the 10× concentrated material was added to the plates and incubated at room temperature for 1 hr to overnight.
The plates were then washed five times with Tris-buffered saline (pH 7.5) containing 0.1% Tween-20 (TTBS). To each well, 100 μl of europium-labeled streptavidin in DELFIA assay buffer (100 mM Tris-HCl, pH 7.8; 150 mM NaCl; 0.5% BSA; 0.05% bovine Ig; 0.05% NaN3; 0.01% Tween-20) was added and incubated for 1.5 hr at room temperature. The plates were then washed five times with TTBS and tapped dry. Subsequently, 100 μl of DELFIA enhancement solution (100 mM acetone-potassium hydrogen phthalate, pH 3.2; 15 mM 2-naphtyltrifluoroacetate; […] tri(n-octyl)-phosphine oxide; 0.1% Triton X-100) was added to each well, and the plates were shaken for 10 min at room temperature. Fluorescence of each sample well was measured at 615 nm using a DELFIA 1234 fluorometer (EG&G Wallac). General procedure and references as described by Wallac are available in “Lanthanide labeling for time-resolved fluorometry”: Wallac publication 1244–1126-03.

| affinity for rGHBP, ranking [1] | binding better than H5WT or bP#445 [2] | SMILES |
| --- | --- | --- |
| highest affinity | 10 times | CC(C)C[C@@H]1NC(=O)[C@H](Cc2c[nH]c3ccccc23)NC(=O)CNC(=O)[C@@H]2CCCN2C(=O)[C@H](Cc2c[nH]c3ccccc23)NC(=O)[C@H]([C@@H](C)O)NC(=O)[C@H](C(C)C)NC(=O)[C@H](CCC(N)=O)NC(=O)[C@H](Cc2c[nH]c3ccccc23)NC(=O)[C@H](CO)NC(=O)[C@H](CCC(N)=O)NC(=O)[C@@H](NC(=O)[C@H](CC(C)C)NC(=O)[C@H](CC(=O)O)NC(=O)[C@H](CCCCN)NC(=O)[C@H](Cc2ccc(O)cc2)NC(=O)[C@@H](N)CC(=O)O)CSSC[C@@H](C(=O)N[C@@H](C)C(=O)N[C@@H](CCCCN)C(=O)N[C@@H](CCCCN)C(=O)O)NC(=O)[C@H](Cc2c[nH]c3ccccc23)NC(=O)CNC(=O)[C@H](C)NC1=O [#418] (H-DYKDLCQSWQVTWPGWLAGWCAKK-OH; disulfide 6-21; N-terminus and C-terminus assumed) |
| highest affinity | 10 times | CC(C)C[C@@H]1NC(=O)[C@H](CCCNC(=N)N)NC(=O)[C@H](CCC(N)=O)NC(=O)[C@@H](NC(=O)[C@H](CC(C)C)NC(=O)[C@H](CC(=O)O)NC(=O)[C@H](CCCCN)NC(=O)[C@H](Cc2ccc(O)cc2)NC(=O)[C@@H](N)CC(=O)O)CSSC[C@@H](C(=O)N[C@@H](C)C(=O)N[C@@H](CCCCN)C(=O)N[C@@H](CCCCN)C(=O)O)NC(=O)[C@H](Cc2c[nH]c3ccccc23)NC(=O)CNC(=O)[C@H](CO)NC(=O)[C@H](CC(C)C)NC(=O)[C@H](Cc2c[nH]c3ccccc23)NC(=O)CNC(=O)[C@@H]2CCCN2C(=O)[C@H](Cc2c[nH]c3ccccc23)NC(=O)CNC(=O)[C@H](C(C)C)NC(=O)CNC1=O [#447] |
